Experimental data as given in patent EP3623369A1, “NOVEL MORPHOLINYL AMINE COMPOUNDS FOR THE TREATMENT OF AUTOIMMUNE DISEASE” (F. Hoffmann-La Roche AG, priority 2018, dated 2020).

Target: T1, hTLR9 (Homo sapiens, UniProt Q9NR96)
T1 sequence (Q9NR96 26-1032): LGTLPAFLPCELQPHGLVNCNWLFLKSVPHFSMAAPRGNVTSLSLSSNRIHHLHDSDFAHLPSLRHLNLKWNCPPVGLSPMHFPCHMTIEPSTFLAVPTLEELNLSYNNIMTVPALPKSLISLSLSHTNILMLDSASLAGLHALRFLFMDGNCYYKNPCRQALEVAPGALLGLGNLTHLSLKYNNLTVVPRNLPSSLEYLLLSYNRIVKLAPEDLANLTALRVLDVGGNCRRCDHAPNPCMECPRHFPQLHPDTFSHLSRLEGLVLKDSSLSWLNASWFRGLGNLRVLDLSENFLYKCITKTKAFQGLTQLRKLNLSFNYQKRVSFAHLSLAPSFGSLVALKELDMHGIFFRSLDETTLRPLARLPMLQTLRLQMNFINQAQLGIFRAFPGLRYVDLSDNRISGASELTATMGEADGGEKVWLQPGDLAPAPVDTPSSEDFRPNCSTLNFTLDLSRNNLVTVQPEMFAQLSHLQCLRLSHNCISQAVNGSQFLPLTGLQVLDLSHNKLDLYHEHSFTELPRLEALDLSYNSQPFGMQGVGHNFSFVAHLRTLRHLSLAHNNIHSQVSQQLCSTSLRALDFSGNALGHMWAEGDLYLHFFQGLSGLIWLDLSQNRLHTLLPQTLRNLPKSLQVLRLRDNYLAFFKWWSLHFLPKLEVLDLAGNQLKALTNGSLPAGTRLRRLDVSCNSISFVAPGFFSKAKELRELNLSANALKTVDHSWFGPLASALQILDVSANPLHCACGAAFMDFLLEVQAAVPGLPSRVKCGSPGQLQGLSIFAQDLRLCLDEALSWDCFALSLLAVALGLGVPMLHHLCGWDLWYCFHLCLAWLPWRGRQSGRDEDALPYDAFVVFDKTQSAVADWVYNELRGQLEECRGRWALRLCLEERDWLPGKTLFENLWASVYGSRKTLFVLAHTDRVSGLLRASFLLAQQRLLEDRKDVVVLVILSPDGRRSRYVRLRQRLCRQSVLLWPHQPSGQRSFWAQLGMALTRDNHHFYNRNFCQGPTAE
Assay: HEK293-Blue-hTLR-9 cells assay (SEAP reporter, ODN2006 stimulation)
Type: cell-based
Conditions: HEK293-Blue-hTLR9 cells, ODN2006, 20 hrs; 0.032 is the lowest tested concentration; read-out: HEK/hTLR9 IC50
Procedure: The following tests were carried out in order to determine the activity of the compounds of formula (I) or (Ia) in HEK293-Blue-hTLR-7/8/9 cells assay.
HEK293-Blue-hTLR-9 cells assay:
A stable HEK293-Blue-hTLR-9 cell line was purchased from InvivoGen (Cat.#: hkb-htlr9, San Diego, California, USA). These cells were originally designed for studying the stimulation of human TLR9 by monitoring the activation of NF-κB. A SEAP (secreted embryonic alkaline phosphatase) reporter gene was placed under the control of the IFN-β minimal promoter fused to five NF-κB and AP-1-binding sites. The SEAP was induced by activating NF-κB and AP-1 via stimulating HEK-Blue hTLR9 cells with TLR9 ligands. Therefore the reporter expression was declined by TLR9 antagonist under the stimulation of a ligand, such as ODN2006 (Cat.#: tlrl-2006-1, Invivogen, San Diego, California, USA), for incubation of 20 hrs. The cell culture supernatant SEAP reporter activity was determined using QUANTI-Blue™ kit (Cat.#: rep-qb1, Invivogen, San Diego, California, USA) at a wavelength of 640 nm, a detection medium that turns purple or blue in the presence of alkaline phosphatase.
HEK293-Blue-hTLR9 cells were incubated at a density of 250,000∼450,000 cells/mL in a volume of 170 µL in a 96-well plate in Dulbecco's Modified Eagle's medium (DMEM) containing 4.5 g/L glucose, 50 U/mL penicillin, […], […], 2 mM L-glutamine, 10% (v/v) heat-inactivated fetal bovine serum with addition of 20 µL test compound in a serial dilution in the presence of final DMSO at 1% and 10 µL of 20uM ODN2006 in above DMEM, perform incubation under 37 °C in a CO2 incubator for 20 hrs. Then 20 µL of the supernatant from each well was incubated with 180 µL Quanti-blue substrate solution at 37 °C for 2 hrs and the absorbance was read at 620∼655 nm using a spectrophotometer. The signalling pathway that TLR9 activation leads to downstream NF-κB activation has been widely accepted, and therefore similar reporter assay was modified for evaluating TLR9 antagonist.

SMILES	IC50
C[C@@H]1CN(c2ccc(C#N)c3nccnc23)C[C@H](CN2Cc3ccc(N4CCNCC4)cc3C2)O1 [Example 12, 8-[(2R,6S)-2-methyl-6-[(5-piperazin-1-ylisoindolin-2-yl)methyl]morpholin-4-yl]quinoxaline-5-carbonitrile]	52 nM
C[C@@H]1CN(c2ccc(C#N)c3nccnc23)C[C@H](CN2Cc3ccc(N4CCN(C5CC5)CC4)cc3C2)O1 [Example 35, 8-[(2S,6R)-2-[[5-(4-cyclopropylpiperazin-1-yl)isoindolin-2-yl]methyl]-6-methyl-morpholin-4-yl]quinoxaline-5-carbonitrile]	216 nM
C[C@@H]1CN(c2ccc(C#N)c3ncsc23)C[C@H](CN2CCc3cc(N4CCNCC4)ccc3C2)O1 [Example 24, 7-[(2R,6S)-2-methyl-6-[(6-piperazin-1-yl-3,4-dihydro-1H-isoquinolin-2-yl)methyl]morpholin-4-yl]-1,3-benzothiazole-4-carbonitrile]	81 nM
C[C@@H]1CN(c2ccc(Cl)c3nccnc23)C[C@H](CN2CCc3cc(N4CCNCC4)ccc3C2)O1 [Example 34, (2R,6S)-4-(8-chloroquinoxalin-5-yl)-2-methyl-6-[(6-piperazin-1-yl-3,4-dihydro-1H-isoquinolin-2-yl)methyl]morpholine]	125 nM
C[C@@H]1CN(c2ccc(Cl)c3ncccc23)C[C@H](CN2CCc3cc(N4CCNCC4)ccc3C2)O1 [Example 32, (2R,6S)-4-(8-chloro-5-quinolyl)-2-methyl-6-[(6-piperazin-1-yl-3,4-dihydro-1H-isoquinolin-2-yl)methyl]morpholine]	123 nM
C[C@@H]1CN(c2ccc(C#N)n3nccc23)C[C@H](CN2CCc3ccc(N4CCNCC4)cc3C2)O1 [Example 11, 4-[(2R,6S)-2-methyl-6-[(7-piperazin-1-yl-3,4-dihydro-1H-isoquinolin-2-yl)methyl]morpholin-4-yl]pyrazolo[1,5-a]pyridine-7-carbonitrile]	60 nM
C[C@@H]1CN(c2ccc(C#N)n3nccc23)C[C@H](CN2Cc3ccc(OCCN(C)C)cc3C2)O1 [Example 28, 4-[(2S,6R)-2-[[5-[2-(dimethylamino)ethoxy]isoindolin-2-yl]methyl]-6-methyl-morpholin-4-yl]pyrazolo[1,5-a]pyridine-7-carbonitrile]	93 nM
C[C@@H]1CN(c2ccc(C#N)c3ncsc23)C[C@H](CN2Cc3cc(N4CCNCC4)cnc3C2)O1 [Example 25, 7-[(2R,6S)-2-methyl-6-[(3-piperazin-1-yl-5,7-dihydropyrrolo[3,4-b]pyridin-6-yl)methyl]morpholin-4-yl]-1,3-benzothiazole-4-carbonitrile]	63 nM
C[C@@H]1CN(c2ccc(C#N)n3ncc(F)c23)C[C@H](CN2Cc3cc(N4CCNCC4)cnc3C2)O1 [Example 29, 3-fluoro-4-[(2R,6S)-2-methyl-6-[(3-piperazin-1-yl-5,7-dihydropyrrolo[3,4-b]pyridin-6-yl)methyl]morpholin-4-yl]pyrazolo[1,5-a]pyridine-7-carbonitrile]	134 nM
CC1CN(c2ccc3c(c2)CN(C[C@H]2CN(c4ccc(C#N)c5nccnc45)C[C@@H](C)O2)C3)CCN1 (stereo partly drawn) [Example 36, 8-[(2R,6S)-2-methyl-6-[[5-(3-methylpiperazin-1-yl)isoindolin-2-yl]methyl]morpholin-4-yl]quinoxaline-5-carbonitrile]	57 nM

The next lines start with the values.

IC50	SMILES
73 nM	C[C@@H]1CN(c2ccc3c(c2)CN(C[C@H]2CN(c4ccc(C#N)c5ncccc45)C[C@@H](C)O2)C3)C[C@H](C)N1 [Example 71, 5-[(2R,6S)-2-methyl-6-[[5-[(3R,5S)-3,5-dimethylpiperazin-1-yl]isoindolin-2-yl]methyl]morpholin-4-yl]quinoline-8-carbonitrile]
66 nM	C[C@@H]1CN(c2ccc(C#N)c3ncccc23)C[C@H](CN2Cc3cc(N4CCNCC4)cc(F)c3C2)O1 [Example 59, 5-[(2S,6R)-2-[(4-fluoro-6-piperazin-1-yl-isoindolin-2-yl)methyl]-6-methyl-morpholin-4-yl]quinoline-8-carbonitrile]
50 nM	C[C@@H]1CN(c2ccc(C#N)c3nccnc23)C[C@H](CNCc2ccc(N3CCNCC3)cc2)O1 [Example 84, 8-[(2R,6S)-2-methyl-6-[[(4-piperazin-1-ylphenyl)methylamino]methyl]morpholin-4-yl]quinoxaline-5-carbonitrile]
59 nM	C[C@@H]1CN(c2ccc(C#N)c3ncccc23)C[C@H](CN2Cc3cnc(N4CCNCC4)cc3C2)O1 [Example 61, 5-[(2R,6S)-2-methyl-6-[(6-piperazin-1-yl-1,3-dihydropyrrolo[3,4-c]pyridin-2-yl)methyl]morpholin-4-yl]quinoline-8-carbonitrile]
221 nM	COC(=O)C1CN(c2ccc3c(c2)CN(C[C@H]2CN(c4ccc(C#N)c5ncccc45)C[C@@H](C)O2)C3)CCN1 (stereo partly drawn) [Example 67, Methyl 4-[2-[[(2S,6R)-4-(8-cyano-5-quinolyl)-6-methyl-morpholin-2-yl]methyl]isoindolin-5-yl] piperazine-2-carboxylate]
54 nM	C[C@@H]1CN(c2ccc(C#N)c3ncccc23)C[C@H](CN2Cc3ccc(N4CCNC[C@@H]4CO)cc3C2)O1 [Example 82, 5-[(2S,6R)-2-[[5-[(2R)-2-(hydroxymethyl)piperazin-1-yl]isoindolin-2-yl]methyl]-6-methyl-morpholin-4-yl]quinoline-8-carbonitrile]
83 nM	C[C@@H]1CN(c2ccc(C#N)c3ncccc23)C[C@H](CN2Cc3ccc(N4CC5(CNC5)C4)cc3C2)O1 [Example 47, 5-[(2S,6R)-2-[[5-(2,6-diazaspiro[3.3]heptan-2-yl)isoindolin-2-yl]methyl]-6-methyl-morpholin-4-yl]quinoline-8-carbonitrile]
260 nM	COCCN1CCN(c2ccc3c(c2)CN(C[C@H]2CN(c4ccc(C#N)c5nccnc45)C[C@@H](C)O2)C3)CC1 [Example 37, 8-[(2S,6R)-2-[[5-[4-(2-methoxyethyl)piperazin-1-yl]isoindolin-2-yl]methyl]-6-methyl-morpholin-4-yl]quinoxaline-5-carbonitrile]
63 nM	C[C@@H]1CN(c2ccc(C#N)c3ncccc23)C[C@H](CN2Cc3ccc(N4CCNC[C@H]4CO)cc3C2)O1 [Example 83, 5-[(2S,6R)-2-[[5-[(2S)-2-(hydroxymethyl)piperazin-1-yl]isoindolin-2-yl]methyl]-6-methyl-morpholin-4-yl]quinoline-8-carbonitrile]
75 nM	C[C@@H]1CN(c2ccc(C#N)c3ncccc23)C[C@H](CN2Cc3ccc(N4CCN[C@@H](C)C4)cc3C2)O1 [Example 64, 5-[(2R,6S)-2-methyl-6-[[5-[(3S)-3-methylpiperazin-1-yl]isoindolin-2-yl]methyl]morpholin-4-yl]quinoline-8-carbonitrile]
46 nM	C[C@@H]1CN(c2ccc(C#N)c3nccnc23)C[C@H](CN2Cc3cnc(N4CCNCC4)cc3C2)O1 [Example 60, 8-[(2R,6S)-2-methyl-6-[(6-piperazin-1-yl-1,3-dihydropyrrolo[3,4-c]pyridin-2-yl)methyl]morpholin-4-yl]quinoxaline-5-carbonitrile]
